{"source": "ChEMBL document CHEMBL4680314", "about": "“Discovery of potent glycogen synthase kinase 3/cholinesterase inhibitors with neuroprotection as potential therapeutic agent for Alzheimer's disease” (Bioorg Med Chem, 2021)", "key": {"[1]": {"experiment": "Half life in Sprague-Dawley rat at 10 mg/kg, po measured upto 24 hrs by LC-MS/MS analysis", "type": "ADME, organism-based", "conditions": "in vivo"}, "[2]": {"molecular_target": "Cyclin-dependent kinase 9 (Homo sapiens, UniProt P50750)", "sequence (P50750 whole entry)": "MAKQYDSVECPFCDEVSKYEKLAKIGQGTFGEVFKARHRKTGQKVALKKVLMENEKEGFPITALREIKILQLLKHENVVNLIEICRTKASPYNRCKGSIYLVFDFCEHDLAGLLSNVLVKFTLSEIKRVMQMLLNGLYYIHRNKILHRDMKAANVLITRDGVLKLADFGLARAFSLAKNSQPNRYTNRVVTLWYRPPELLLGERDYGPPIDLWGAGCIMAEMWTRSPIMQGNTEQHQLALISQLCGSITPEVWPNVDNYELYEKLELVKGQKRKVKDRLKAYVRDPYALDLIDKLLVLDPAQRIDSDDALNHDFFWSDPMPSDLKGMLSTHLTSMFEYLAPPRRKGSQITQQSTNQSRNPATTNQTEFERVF", "experiment": "Inhibition of CDK9 (unknown origin) by ATP competitive based analysis"}, "[3]": {"molecular_target": "Mitogen-activated protein kinase 9 (Homo sapiens, UniProt P45984)", "sequence (P45984 whole entry)": "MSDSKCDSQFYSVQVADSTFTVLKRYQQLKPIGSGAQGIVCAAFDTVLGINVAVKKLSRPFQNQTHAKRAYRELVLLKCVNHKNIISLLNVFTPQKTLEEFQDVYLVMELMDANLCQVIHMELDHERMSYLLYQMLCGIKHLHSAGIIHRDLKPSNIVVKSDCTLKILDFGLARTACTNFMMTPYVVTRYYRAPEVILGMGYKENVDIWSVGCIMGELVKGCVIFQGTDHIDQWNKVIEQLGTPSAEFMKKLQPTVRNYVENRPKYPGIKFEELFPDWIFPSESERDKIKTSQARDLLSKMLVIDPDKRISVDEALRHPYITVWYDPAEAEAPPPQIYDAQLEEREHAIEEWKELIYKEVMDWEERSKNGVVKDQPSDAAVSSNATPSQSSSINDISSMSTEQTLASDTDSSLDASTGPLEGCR", "experiment": "Inhibition of JNK2 (unknown origin) by ATP competitive based analysis"}, "[4]": {"species_on_record": "Homo sapiens", "experiment": "Selectivity index, ratio of IC50 for JNK2 (unknown origin) to IC50 for GSK-3 beta (unknown origin) by ATP competitive based analysis"}, "[5]": {"species_on_record": "Homo sapiens", "experiment": "Selectivity index, ratio of IC50 for ERK1 (unknown origin) to IC50 for GSK-3 beta (unknown origin) by ATP competitive based analysis"}, "[6]": {"experiment": "AUC (0 to infinity) in Sprague-Dawley rat at 5 mg/kg, iv by LC-MS/MS analysis", "type": "ADME, organism-based", "design": "route intravenous, dose 5 mg/kg", "conditions": "in vivo"}, "[7]": {"molecular_target": "Mitogen-activated protein kinase 13 (Homo sapiens, UniProt O15264)", "sequence (O15264 whole entry)": "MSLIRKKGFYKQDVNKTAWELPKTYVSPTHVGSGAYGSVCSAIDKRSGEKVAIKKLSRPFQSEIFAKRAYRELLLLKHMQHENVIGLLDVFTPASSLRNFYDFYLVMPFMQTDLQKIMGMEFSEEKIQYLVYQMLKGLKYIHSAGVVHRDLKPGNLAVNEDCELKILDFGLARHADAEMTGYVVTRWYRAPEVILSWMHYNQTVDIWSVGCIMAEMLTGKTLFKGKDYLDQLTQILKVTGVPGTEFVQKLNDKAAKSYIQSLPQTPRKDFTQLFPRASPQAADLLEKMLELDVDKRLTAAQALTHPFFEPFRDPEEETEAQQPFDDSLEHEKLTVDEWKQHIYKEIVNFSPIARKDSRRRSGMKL", "experiment": "Inhibition of p38MAPK delta (unknown origin) by ATP competitive based analysis"}, "[8]": {"experiment": "Volume of distribution in Sprague-Dawley rat at 5 mg/kg, iv measured upto 24 hrs by LC-MS/MS analysis", "type": "ADME, organism-based", "conditions": "in vivo"}, "[9]": {"test_system": "N2a", "experiment": "Effect on tau protein level in mouse N2a cells overexpressing human tau at 0.074 to 6 uM incubated for 6 hrs by Western blot analysis", "type": "functional, cell-based", "conditions": "dose 0.074-6 µM"}, "[10]": {"experiment": "in vitro", "conditions": "PAMPA", "description": "Effective permeability of compound in PBS/EtOH buffer (7:3) at 25 ug/ml incubated for 18 hrs by PAMPA-BBB assay"}, "[11]": {"species_on_record": "Homo sapiens", "experiment": "Selectivity index, ratio of IC50 for p38MAPK alpha (unknown origin) to IC50 for GSK-3 beta (unknown origin) by ATP competitive based analysis"}, "[12]": {"molecular_target": "Mitogen-activated protein kinase 1 (Homo sapiens, UniProt P28482)", "sequence (P28482 whole entry)": "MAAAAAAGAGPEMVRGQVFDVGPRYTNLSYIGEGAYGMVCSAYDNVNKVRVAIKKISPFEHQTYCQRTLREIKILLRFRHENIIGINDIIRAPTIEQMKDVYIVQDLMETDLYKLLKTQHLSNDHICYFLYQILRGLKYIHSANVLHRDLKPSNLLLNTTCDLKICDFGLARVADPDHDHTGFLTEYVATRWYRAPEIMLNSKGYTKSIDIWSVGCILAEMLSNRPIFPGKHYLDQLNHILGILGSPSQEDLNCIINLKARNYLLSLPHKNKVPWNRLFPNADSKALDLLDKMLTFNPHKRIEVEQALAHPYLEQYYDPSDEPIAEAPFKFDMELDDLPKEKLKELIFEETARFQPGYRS", "experiment": "Inhibition of ERK2 (unknown origin) by ATP competitive based analysis"}, "[13]": {"experiment": "Drug uptake in mouse BV-2 cells at 25 uM incubated for 1 hr measured per million cells by LC-MS/MS analysis", "type": "ADME, cell-based", "conditions": "bv-2, 1 h"}, "[14]": {"test_system": "Mus musculus", "experiment": "Cognitive enhancing effect in ICR mouse model of scopolamine-induced cognitive dysfunction assessed as reduction in memory impairment by measuring increase in number of virtual platform crossings at 15 mg/kg, po by Morris water maze test", "type": "functional, organism-based"}, "[15]": {"molecular_target": "Dual specificity tyrosine-phosphorylation-regulated kinase 1B (Homo sapiens, UniProt Q9Y463)", "sequence (Q9Y463 whole entry)": "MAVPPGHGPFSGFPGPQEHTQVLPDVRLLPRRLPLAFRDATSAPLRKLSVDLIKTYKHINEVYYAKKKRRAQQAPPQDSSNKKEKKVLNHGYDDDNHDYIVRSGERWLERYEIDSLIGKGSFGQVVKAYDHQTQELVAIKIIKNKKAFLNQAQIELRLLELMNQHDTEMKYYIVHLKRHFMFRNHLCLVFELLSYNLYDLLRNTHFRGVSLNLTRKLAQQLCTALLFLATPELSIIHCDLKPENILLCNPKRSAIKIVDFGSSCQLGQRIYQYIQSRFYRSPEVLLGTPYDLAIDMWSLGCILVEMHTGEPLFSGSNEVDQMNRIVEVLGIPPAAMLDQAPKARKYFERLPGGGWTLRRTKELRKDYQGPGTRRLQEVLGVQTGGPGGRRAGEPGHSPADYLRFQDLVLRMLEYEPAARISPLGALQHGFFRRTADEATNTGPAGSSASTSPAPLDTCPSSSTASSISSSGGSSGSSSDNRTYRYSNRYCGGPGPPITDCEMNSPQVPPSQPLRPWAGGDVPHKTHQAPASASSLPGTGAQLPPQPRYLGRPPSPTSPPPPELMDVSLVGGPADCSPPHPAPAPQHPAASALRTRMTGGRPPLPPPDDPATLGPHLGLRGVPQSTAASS", "experiment": "Inhibition of DYRK1B (unknown origin) by ATP competitive based analysis"}, "[16]": {"species_on_record": "Homo sapiens", "experiment": "Selectivity index, ratio of IC50 for p38MAPK beta (unknown origin) to IC50 for GSK-3 beta (unknown origin) by ATP competitive based analysis"}, "[17]": {"molecular_target": "Glycogen synthase kinase-3 beta (Mus musculus, UniProt Q9WV60)", "sequence (Q9WV60 whole entry)": "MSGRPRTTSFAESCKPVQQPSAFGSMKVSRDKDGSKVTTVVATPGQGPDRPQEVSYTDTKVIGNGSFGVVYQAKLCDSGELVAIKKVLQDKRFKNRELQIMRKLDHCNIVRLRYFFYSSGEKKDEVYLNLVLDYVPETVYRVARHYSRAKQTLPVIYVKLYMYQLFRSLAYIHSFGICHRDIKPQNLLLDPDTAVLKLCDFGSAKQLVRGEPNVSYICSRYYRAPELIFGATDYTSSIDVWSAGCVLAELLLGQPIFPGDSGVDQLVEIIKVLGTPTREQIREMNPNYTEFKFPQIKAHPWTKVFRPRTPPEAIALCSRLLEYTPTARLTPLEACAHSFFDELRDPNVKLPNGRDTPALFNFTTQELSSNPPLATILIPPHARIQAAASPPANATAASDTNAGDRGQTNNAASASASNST", "experiment": "Inhibition of GSK3beta in mouse N2a cells overexpressing human tau assessed as reduction in tau phosphorylation at Ser396 residue incubated for 6 hrs by Western blot analysis", "type": "cell-based"}, "[18]": {"molecular_target": "Glycogen synthase kinase-3 beta (Mus musculus) (UniProt Q9WV60)", "sequence (Q9WV60 whole entry, looked up)": "as the sequence (Q9WV60 whole entry) above", "experiment": "Inhibition of GSK3beta in mouse N2a cells overexpressing human tau assessed as tau phosphorylation at Ser396 residue at 0.67 uM incubated for 6 hrs by Western blot analysis (reference value: […] %)", "type": "cell-based", "design": "scale not given: the % may be the effect or the level left"}, "[19]": {"molecular_target": "Mitogen-activated protein kinase 14 (Homo sapiens, UniProt Q16539)", "sequence (Q16539 whole entry)": "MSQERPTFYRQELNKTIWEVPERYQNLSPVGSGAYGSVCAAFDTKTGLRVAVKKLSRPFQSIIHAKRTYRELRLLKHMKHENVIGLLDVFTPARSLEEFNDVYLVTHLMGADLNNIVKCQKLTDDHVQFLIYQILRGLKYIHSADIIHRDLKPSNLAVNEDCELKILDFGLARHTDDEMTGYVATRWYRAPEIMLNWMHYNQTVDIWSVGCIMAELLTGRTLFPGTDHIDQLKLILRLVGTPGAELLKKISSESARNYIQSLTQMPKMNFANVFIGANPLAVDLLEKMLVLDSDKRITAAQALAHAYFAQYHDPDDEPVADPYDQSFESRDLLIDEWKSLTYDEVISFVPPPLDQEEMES", "experiment": "Inhibition of p38MAPK alpha (unknown origin) by ATP competitive based analysis"}, "[20]": {"species_on_record": "Homo sapiens", "experiment": "Selectivity index, ratio of IC50 for ERK2 (unknown origin) to IC50 for GSK-3 beta (unknown origin) by ATP competitive based analysis"}, "[21]": {"experiment": "Plasma concentration in ICR mouse at 15 mg/kg, po measured after 90 mins by LC-MS/MS analysis", "type": "ADME, organism-based"}, "[22]": {"species_on_record": "Homo sapiens", "experiment": "Selectivity index, ratio of IC50 for CDK2 (unknown origin) to IC50 for GSK-3 beta (unknown origin) by ATP competitive based analysis"}, "[23]": {"molecular_target": "Acetylcholinesterase (Homo sapiens, UniProt P22303)", "sequence (P22303 whole entry)": "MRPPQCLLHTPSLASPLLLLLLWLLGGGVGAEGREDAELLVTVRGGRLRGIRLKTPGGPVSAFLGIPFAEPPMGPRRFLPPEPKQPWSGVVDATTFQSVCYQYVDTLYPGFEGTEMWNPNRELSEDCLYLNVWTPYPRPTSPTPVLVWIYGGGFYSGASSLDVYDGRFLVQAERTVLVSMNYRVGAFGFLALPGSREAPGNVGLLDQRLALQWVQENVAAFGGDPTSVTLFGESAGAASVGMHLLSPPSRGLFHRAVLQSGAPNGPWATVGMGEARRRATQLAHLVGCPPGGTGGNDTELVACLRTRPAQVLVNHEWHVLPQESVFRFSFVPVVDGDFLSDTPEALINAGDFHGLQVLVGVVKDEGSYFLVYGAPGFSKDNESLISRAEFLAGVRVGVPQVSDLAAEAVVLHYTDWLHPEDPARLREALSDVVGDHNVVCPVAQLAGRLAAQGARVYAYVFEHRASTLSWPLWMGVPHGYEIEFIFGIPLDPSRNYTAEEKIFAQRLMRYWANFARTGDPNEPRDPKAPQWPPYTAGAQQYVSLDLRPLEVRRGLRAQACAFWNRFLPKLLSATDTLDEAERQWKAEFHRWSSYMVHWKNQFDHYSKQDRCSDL", "experiment": "Inhibition of human recombinant AChE expressed in HEK293 cells using acetylthiocholine iodide as substrate incubated for 10 mins by Ellman's method", "type": "cell-based"}, "[24]": {"species_on_record": "Homo sapiens", "experiment": "Selectivity index, ratio of IC50 for CDK6 (unknown origin) to IC50 for GSK-3 beta (unknown origin) by ATP competitive based analysis"}, "[25]": {"test_system": "BV-2", "experiment": "Anti-inflammatory activity in mouse BV-2 cells assessed as reduction in LPS-induced ROS production at 3 uM incubated for 1 hr followed by LPS stimulation and measured after 24 hrs by DCFH-DA staining based inverted fluorescence microscopy", "type": "functional, cell-based", "conditions": "time 25.0 hrs"}, "[26]": {"test_system": "BV-2", "experiment": "Anti-inflammatory activity in mouse BV-2 cells assessed as reduction in LPS-induced TNFalpha production incubated for 1 hr followed by LPS stimulation and measured after 24 hrs by ELISA", "type": "functional, cell-based", "conditions": "dose 2-8 µM, time 25.0 hrs"}, "[27]": {"experiment": "Cmax in Sprague-Dawley rat at 5 mg/kg, iv measured upto 24 hrs by LC-MS/MS analysis", "type": "ADME, organism-based", "design": "route intravenous, dose 5 mg/kg, time <=24", "conditions": "in vivo"}, "[28]": {"experiment": "MRT (0 to t) in Sprague-Dawley rat at 5 mg/kg, iv measured upto 24 hrs by LC-MS/MS analysis", "type": "ADME, organism-based", "conditions": "in vivo"}, "[29]": {"experiment": "AUC (0 to 24 hrs) in Sprague-Dawley rat at 5 mg/kg, iv measured upto 24 hrs by LC-MS/MS analysis", "type": "ADME, organism-based", "design": "route intravenous, dose 5 mg/kg, time <=24", "conditions": "in vivo"}, "[30]": {"molecular_target": "Glycogen synthase kinase-3 beta (Homo sapiens, UniProt P49841)", "sequence (P49841 whole entry)": "as the sequence (Q9WV60 whole entry) above, with P390T, A392T, T400A, A402T counted along it", "experiment": "biochemical", "description": "Inhibition of recombinant human N-terminal His6-tagged GSK3beta H350L mutant expressed in baculovirus infected Sf21 cells using prephosphorylated polypeptide as substrate incubated for 1 min followed by substrate addition and measured after 30 mins by Kinase-Glo luminescence assay"}, "[31]": {"test_system": "BV-2", "experiment": "Anti-inflammatory activity in mouse BV-2 cells assessed as reduction in LPS-induced IL-1beta expression at 4 uM incubated for 1 hr followed by LPS stimulation and measured after 24 hrs by immunofluorescence based laser confocal microscopy", "type": "functional, cell-based", "conditions": "time 25.0 hrs"}, "[32]": {"species_on_record": "Homo sapiens", "experiment": "Selectivity index, ratio of IC50 for JNK3 (unknown origin) to IC50 for GSK-3 beta (unknown origin) by ATP competitive based analysis"}, "[33]": {"test_system": "BV-2", "experiment": "Anti-inflammatory activity in mouse BV-2 cells assessed as reduction in LPS-induced IL-1beta production incubated for 1 hr followed by LPS stimulation and measured after 24 hrs by ELISA", "type": "functional, cell-based", "conditions": "dose 2-8 µM, time 25.0 hrs"}, "[34]": {"species_on_record": "Homo sapiens", "experiment": "Selectivity index, ratio of IC50 for CDK9 (unknown origin) to IC50 for GSK-3 beta (unknown origin) by ATP competitive based analysis"}}, "note": "Active and inactive are the calls of the source. The rule behind the calls is not given here.", "data": [{"molecule": "NC(=O)c1sc(-c2ccnc(NC(=O)C3CC3)c2)nc1OCCCC1CCN(Cc2ccc(F)cc2)CC1", "values": [{"measurement": "half-life", "setting": "[1]", "result": 5.8, "unit": "h"}, {"measurement": "IC50", "setting": "[2]", "result": 108, "unit": "nM"}, {"measurement": "IC50", "setting": "[3]", "result": "> 300", "unit": "nM"}, {"measurement": "Ratio IC50", "setting": "[4]", "result": 200}, {"measurement": "Ratio IC50", "setting": "[5]", "result": 200}, {"measurement": "AUC(0-inf)", "setting": "[6]", "result": 1980, "unit": "ng·h/mL"}, {"measurement": "IC50", "setting": "[7]", "result": "> 300", "unit": "nM"}, {"measurement": "Vd", "setting": "[8]", "result": 15.8, "unit": "L/kg"}, {"measurement": "Activity", "setting": "[9]", "result": "inactive"}, {"measurement": "Papp at 18 h, 25 ug/ml", "setting": "[10]", "result": 8.4, "unit": "×10⁻⁶ cm/s"}, {"measurement": "Ratio IC50", "setting": "[11]", "result": 200}, {"measurement": "IC50", "setting": "[12]", "result": "> 300", "unit": "nM"}, {"measurement": "Drug uptake", "setting": "[13]", "result": 722, "unit": "ng"}, {"measurement": "Activity", "setting": "[14]", "result": "Active"}, {"measurement": "IC50", "setting": "[15]", "result": 37.8, "unit": "nM"}, {"measurement": "Ratio IC50", "setting": "[16]", "result": 200}, {"measurement": "DC50", "setting": "[17]", "result": 380, "unit": "nM"}, {"measurement": "Activity", "setting": "[18]", "result": 32.9, "unit": "%"}, {"measurement": "IC50", "setting": "[19]", "result": "> 300", "unit": "nM"}, {"measurement": "Ratio IC50", "setting": "[20]", "result": 200}, {"measurement": "concentration at 1.5 h", "setting": "[21]", "result": 265, "unit": "ng/mL"}, {"measurement": "Ratio IC50", "setting": "[22]", "result": 200}, {"measurement": "IC50", "setting": "[23]", "result": 310, "unit": "nM"}, {"measurement": "Ratio IC50", "setting": "[24]", "result": 200}, {"measurement": "Activity", "setting": "[25]", "result": "Active"}, {"measurement": "Activity", "setting": "[26]", "result": "Dose-dependent effect"}, {"measurement": "Cmax", "setting": "[27]", "result": 1000, "unit": "ng/mL"}, {"measurement": "MRT last at 24 h", "setting": "[28]", "result": 3.3, "unit": "h"}, {"measurement": "AUC(0-t)", "setting": "[29]", "result": 1960, "unit": "ng·h/mL"}, {"measurement": "IC50", "setting": "[30]", "result": 3, "unit": "nM"}, {"measurement": "Activity", "setting": "[31]", "result": "Active"}, {"measurement": "Ratio IC50", "setting": "[32]", "result": 200}, {"measurement": "Activity", "setting": "[33]", "result": "Dose-dependent effect"}, {"measurement": "Ratio IC50", "setting": "[34]", "result": 200}]}]}
